This note sets out measurements from patent US9822147B2, “Methods of treating ophthalmic diseases using NPR-B agonists” (priority 2009, dated 2017).

Numbered stars: 1 amine (or outer) side, 2 acyl side, 3 side chain; on linkers, the order of the positions; unused ones are H or OH. Square brackets hold non-standard residues; d marks the D form. Ends that are not written are not given here. Peptide text beside a SMILES is read from it. * marks the point of attachment. Sni = (S)-nipecotic acid, O=C([C@H]1CCCN([*:1])C1)[*:2]; Phe(3,4-Cl2) = N[C@@H](Cc1ccc(Cl)c(Cl)c1)C(=O)O; X4 = NCCCN[C@@H]1C[C@@H](C(=O)[*:2])N([*:1])C1; X16 = CCN[C@@H]1C[C@@H](C(=O)[*:2])N([*:1])C1; X7 = N[C@@H]1CCN([*:1])[C@@H]1C(=O)[*:2]; Pro(4R-NH2) = N[C@H]1CN[C@H](C(=O)O)C1; dOrn(Me2) = CN(C)CCC[C@@H](N)C(=O)O; X2 = O=C([C@H]1CCCN([*:1])C1)[*:2]; X1 = CCCCCCCCN1CCC[C@H](C(=O)*)C1; dDap(Me2) = CN(C)C[C@@H](N)C(=O)O; Hyp = O=C(O)[C@@H]1C[C@@H](O)CN1; NMeF = CN[C@@H](Cc1ccccc1)C(=O)O; Aoc(2) = CCCCCC[C@H](N)C(=O)O; NHcycloheptyl = C1CCCC(N*)CC1; NMeL = CN[C@@H](CC(C)C)C(=O)O; Nle = CCCC[C@H](N)C(=O)O; Octanoyl = CCCCCCCC(=O)*; AEEA = NCCOCCOCC(=O)O; Occ = octanoic acid Bounds are passed on as bounds.

The first assay has as its target T1, NPR-B (Homo sapiens, UniProt P20594).
T1 construct: a functional assay using endogenously NPR-B expressing GTM-3 cells; endogenous in cells; host or cells: GTM-3 (human glaucoma trabecular meshwork cells)
T1 sequence (P20594 23-1047): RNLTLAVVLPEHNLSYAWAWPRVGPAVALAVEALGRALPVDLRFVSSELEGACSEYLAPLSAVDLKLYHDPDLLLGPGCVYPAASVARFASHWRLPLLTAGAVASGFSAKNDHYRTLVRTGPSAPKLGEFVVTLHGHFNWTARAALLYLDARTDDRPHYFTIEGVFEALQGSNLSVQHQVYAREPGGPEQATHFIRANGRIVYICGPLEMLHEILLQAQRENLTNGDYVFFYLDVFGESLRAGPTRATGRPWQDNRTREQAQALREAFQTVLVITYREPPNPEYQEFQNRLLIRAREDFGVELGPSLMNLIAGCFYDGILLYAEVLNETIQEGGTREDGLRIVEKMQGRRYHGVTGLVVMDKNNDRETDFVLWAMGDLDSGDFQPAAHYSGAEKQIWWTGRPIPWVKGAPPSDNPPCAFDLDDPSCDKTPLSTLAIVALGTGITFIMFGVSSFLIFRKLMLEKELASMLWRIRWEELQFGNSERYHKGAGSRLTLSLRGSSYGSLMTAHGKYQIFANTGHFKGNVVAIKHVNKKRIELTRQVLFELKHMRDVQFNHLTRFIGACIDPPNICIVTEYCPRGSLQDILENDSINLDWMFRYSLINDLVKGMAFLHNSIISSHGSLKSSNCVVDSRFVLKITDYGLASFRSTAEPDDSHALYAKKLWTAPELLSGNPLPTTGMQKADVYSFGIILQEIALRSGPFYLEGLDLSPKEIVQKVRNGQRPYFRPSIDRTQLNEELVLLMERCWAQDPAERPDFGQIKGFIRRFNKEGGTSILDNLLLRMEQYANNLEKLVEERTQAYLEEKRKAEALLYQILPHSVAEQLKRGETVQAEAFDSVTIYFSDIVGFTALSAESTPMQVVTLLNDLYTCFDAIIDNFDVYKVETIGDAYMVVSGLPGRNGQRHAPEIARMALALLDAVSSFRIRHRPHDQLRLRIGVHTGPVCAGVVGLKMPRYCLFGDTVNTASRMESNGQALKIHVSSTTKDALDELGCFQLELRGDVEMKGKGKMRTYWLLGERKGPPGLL
The assay is described as follows: NPR-B induced production of cyclic GMP in human glaucoma trabecular meshwork cells (GTM-3). The format is cell-based. The conditions noted are these: group by EC50 and Emax (CNP = 100%); Table 4; read-out: Activity (group), NPR-B activation assayed with GTM-3 cells.
As for `CCCCCCCC(=O)N1CCC[C@H](C(=O)N[C@@H](Cc2ccccc2)C(=O)N[C@H](CC(C)C)C(=O)N[C@@H](CCCC)C(=O)N2C[C@H](O)C[C@H]2C(=O)N(C)[C@@H](CC(C)C)C(=O)N[C@@H](CC(=O)O)C(=O)N2CCC[C@H]2C(=O)NC2CCCCCC2)C1` [JAL-1657, Occ-Sni-Phe-leu-Nle-Hyp-Nml-Asp-Pro-Che] (Octanoyl-[X2]F[dL][Nle][Hyp][NMeL]DP-NHcycloheptyl), the EC50 is under 1 µM.

In the case of `CCCCCCCC(=O)N1CCC[C@H](C(=O)N[C@@H](Cc2ccc(Cl)c(Cl)c2)C(=O)N[C@H](CC(C)C)C(=O)N[C@@H](CC(C)C)C(=O)N2C[C@H](O)C[C@H]2C(=O)N(C)[C@@H](CC(C)C)C(=O)N[C@@H](CC(=O)O)C(=O)N[C@@H](CCCNC(=N)N)C(=O)N[C@H](C(N)=O)[C@@H](C)CC)C1` [JAL-1496, Occ-Sni-Eaa-leu-Leu-Hyp-Nml-Asp-Arg-Ile-NH2] (Octanoyl-[X2][Phe(3,4-Cl2)][dL]L[Hyp][NMeL]DRI-NH2), the EC50 is under 1 µM. Turning to `CCCCCCCC(=O)N1CCC[C@H](C(=O)N[C@@H](Cc2ccccc2)C(=O)N[C@H](CC(C)C)C(=O)N[C@@H](CC(C)C)C(=O)N2C[C@H](NCCCN)C[C@H]2C(=O)N(C)[C@@H](CC(C)C)C(=O)N[C@@H](CC(=O)O)C(=O)N[C@@H](CCCNC(=N)N)C(=O)N[C@H](C(N)=O)[C@@H](C)CC)C1` [JAL-1372, Occ-Sni-Phe-leu-Leu-Tap(Ap)-Nml-Asp-Arg-Ile-NH2] (Octanoyl-[X2]F[dL]L[X4][NMeL]DRI-NH2), the EC50 was under 1 µM.

As for `CCCCc1cnc(Nc2ccc(C(=O)N[C@@H](Cc3ccccc3)C(=O)N[C@H](CC(C)C)C(=O)N[C@@H](CC(C)C)C(=O)N3C[C@H](O)C[C@H]3C(=O)N(C)[C@@H](CC(C)C)C(=O)N[C@@H](CC(=O)O)C(=O)N[C@@H](CCCNC(=N)N)C(=O)N[C@H](C(N)=O)[C@@H](C)CC)cc2)s1` [JAL-1380, (AR-201-68)-Phe-leu-Leu-Hyp-Nml-Asp-Arg-Ile-NH2] (HELM PEPTIDE1{[CCCCc1cnc(Nc2ccc(C(=O)[*:2])cc2)s1].F.[dL].L.[Hyp].[meL].D.R.I.[am]}$$$$V2.0), the EC50 is under 1 µM. In the case of `CCCCCCCC(=O)N1CCC[C@H](C(=O)N[C@@H](Cc2ccccc2)C(=O)N[C@H](CC(C)C)C(=O)N[C@@H](CC(C)C)C(=O)N2C[C@H](NCC)C[C@H]2C(=O)N(C)[C@@H](CC(C)C)C(=O)N[C@@H](CC(=O)O)C(=O)N[C@@H](CCCNC(=N)N)C(=O)N[C@H](C(N)=O)[C@@H](C)CC)C1` [JAL-1349, Occ-Sni-Phe-leu-Leu-Tap(Et)-Nml-Asp-Arg-Ile-NH2] (Octanoyl-[X2]F[dL]L[X16][NMeL]DRI-NH2), the EC50 was under 1 µM. Regarding `CCCCCCCC(=O)N[C@H](C)C(=O)N[C@@H](Cc1ccccc1)C(=O)N[C@H](CC(C)C)C(=O)N[C@@H](CC(C)C)C(=O)N1C[C@H](O)C[C@H]1C(=O)N(C)[C@@H](CC(C)C)C(=O)N[C@@H](CC(=O)O)C(=O)N[C@@H](CCCNC(=N)N)C(=O)NC(C)(CC(C)C)C(N)=O` (stereo partly drawn) [JAL-1414, Occ-ala-Phe-leu-Leu-Hyp-Nml-Asp-Arg-Aml-NH2] (HELM PEPTIDE1{[CCCCCCCC(=O)[*:2]].[dA].F.[dL].L.[Hyp].[meL].D.R.[CC(C)CC(C)(N[*:1])C(=O)[*:2]].[am]}$$$$V2.0), the EC50 was under 1 µM. The same measure, in the same setting: the same measure for `CCCCCCCC(=O)N[C@H](C)C(=O)N[C@@H](Cc1ccccc1)C(=O)N[C@H](CC(C)C)C(=O)N[C@@H](CC(C)C)C(=O)N1C[C@H](O)C[C@H]1C(=O)N[C@@H](CN(C)C)C(=O)N[C@@H](CC(=O)O)C(=O)N[C@@H](CCCNC(=N)N)C(=O)N[C@H](C(N)=O)[C@@H](C)CC` [JAL-1367, Occ-ala-Phe-leu-Leu-Hyp-Dap(Me2)-Asp-Arg-Ile-NH2] (HELM PEPTIDE1{[CCCCCCCC(=O)[*:2]].[dA].F.[dL].L.[Hyp].[CN(C)C[C@H](N[*:1])C(=O)[*:2]].D.R.I.[am]}$$$$V2.0): under 1 µM; for `CCCCCC[C@H](NC(=O)COCCOCCN)C(=O)N1CCC[C@H](C(=O)N[C@@H](Cc2ccccc2)C(=O)N[C@H](CC(C)C)C(=O)N[C@@H](CC(C)C)C(=O)N2C[C@H](O)C[C@H]2C(=O)N(C)[C@@H](CC(C)C)C(=O)N[C@@H](CC(=O)O)C(=O)N[C@@H](CCCNC(=N)N)C(=O)N[C@H](C(N)=O)[C@@H](C)CC)C1` [JAL-1808, H-Adx-Hgl-Sni-Phe-leu-Leu-Hyp-Nml-Asp-Arg-Ile-NH2] (H-[AEEA][Aoc(2)][X2]F[dL]L[Hyp][NMeL]DRI-NH2): under 1 µM; for `CCCCCCCC(=O)N1CCCC2(CCN(C(Cc3ccccc3)C(=O)N[C@H](CC(C)C)C(=O)N[C@@H](CC(C)C)C(=O)N3C[C@H](O)C[C@H]3C(=O)N(C)[C@@H](CC(C)C)C(=O)N[C@@H](CC(=O)O)C(=O)N[C@@H](CCCNC(=N)N)C(=O)N[C@H](C(N)=O)[C@@H](C)CC)C2=O)C1` (stereo partly drawn) [JAL-1765-2, (AR-314-87)-leu-Leu-Hyp-Nml-Asp-Arg-Ile-NH2] (HELM PEPTIDE1{[CCCCCCCC(=O)[*:2]].[O=C1N(C(Cc2ccccc2)C(=O)[*:2])CCC12CCCN([*:1])C2].[dL].L.[Hyp].[meL].D.R.I.[am]}$$$$V2.0): under 1 µM. Consider `CCCCCCCC(=O)N1CCC[C@H](C(=O)N[C@@H](Cc2ccccc2)C(=O)N[C@H](CCCN(C)C)C(=O)N[C@@H](CC(C)C)C(=O)N2C[C@H](O)C[C@H]2C(=O)N(C)[C@@H](CC(C)C)C(=O)N[C@@H](CC(=O)O)C(=O)N[C@@H](CCCNC(=N)N)C(=O)NC2CCCCCC2)C1` [JAL-1776, Occ-Sni-Phe-orn(Me2)-Leu-Hyp-Nml-Asp-Arg-Che] (Octanoyl-[X2]F[dOrn(Me2)]L[Hyp][NMeL]DR-NHcycloheptyl), for which the EC50 was under 1 µM. `CCCCCCCC(=O)N[C@H](C)C(=O)N[C@@H](Cc1ccccc1)C(=O)N[C@H](CC(C)C)C(=O)N[C@@H](CC(C)C)C(=O)N1C[C@H](O)C[C@H]1C(=O)N(C)[C@@H](CC(C)C)C(=O)N[C@H](C(=O)N[C@@H](CCCNC(=N)N)C(=O)N[C@H](C(N)=O)[C@@H](C)CC)C1CCCC1` [JAL-1556, Occ-ala-Phe-leu-Leu-Hyp-Nml-(BB725)-Arg-Ile-NH2] (HELM PEPTIDE1{[CCCCCCCC(=O)[*:2]].[dA].F.[dL].L.[Hyp].[meL].[O=C([C@@H](N[*:1])C1CCCC1)[*:2]].R.I.[am]}$$$$V2.0): the EC50 is under 1 µM.

For the compound `CCCCCCCC(=O)N1CCC[C@H](C(=O)N[C@@H](Cc2ccccc2)C(=O)N[C@H](CC(C)C)C(=O)N[C@@H](CC(C)C)C(=O)N2C[C@H](O)C[C@H]2C(=O)N(C)[C@@H](CC(C)C)C(=O)N[C@@H](CC(=O)O)C(=O)N2CC[C@@H](N)[C@H]2C(=O)NC2CCCCCC2)C1` [JAL-1679, Occ-Sni-Phe-leu-Leu-Hyp-Nml-Asp-Pca-Che] (Octanoyl-[X2]F[dL]L[Hyp][NMeL]D[X7]-NHcycloheptyl), the EC50 was under 1 µM. As for `CCCCCCCC(=O)N1CCC[C@H](C(=O)N(C)[C@@H](Cc2ccccc2)C(=O)N[C@H](CC(C)C)C(=O)N[C@@H](CC(C)C)C(=O)N2C[C@H](O)C[C@H]2C(=O)N(C)[C@@H](CC(C)C)C(=O)N[C@@H](CC(=O)O)C(=O)N2CCC[C@H]2C(=O)NC2CCCCCC2)C1` [JAL-1597, Occ-Sni-Nmf-leu-Leu-Hyp-Nml-Asp-Pro-Che] (Octanoyl-[X2][NMeF][dL]L[Hyp][NMeL]DP-NHcycloheptyl), the EC50 is under 1 µM.

For another assay, the system named is rabbit eyes. The assay can be described thus: Efficacy in the rabbit: intraocular pressure (IOP) after a single topical ocular drop. The format is in vivo. The conditions noted are these: dose 300 ug topical ocular, single 30 μL drop, up to 4 hr post dose, 1% as suspension (+) or solution (++) per mark on label. The protocol:
A single 30 μL drop of a test item formulation was administered to rabbit eyes (n=8 to 10).
Intraocular pressure (IOP) was assessed in each eye at 0 hr, just prior to dosing, and again hourly for up to 4 hr post dose. The efficacy of a given formulation was determined based on the difference between the pretreatment TOP readings at 0 hr and the post treatment readings. A maximum percent reduction in IOP greater than 15% was noted by the “+” symbol. A maximum IOP reduction of less than 15% was assigned the “−” symbol.
Take `CCCCCCCCN1CCC[C@H](C(=O)N[C@@H](Cc2ccccc2)C(=O)N[C@H](CN(C)C)C(=O)N[C@@H](CC(C)C)C(=O)N2C[C@H](N)C[C@H]2C(=O)N(C)[C@@H](CC(C)C)C(=O)N[C@@H](CC(=O)O)C(=O)N[C@@H](CCCNC(=N)N)C(=O)N[C@H](C(N)=O)[C@@H](C)CC)C1` [JAL-1369, Oct-Sni-Phe-dap(Me2)-Leu-Tap-Nml-Asp-Arg-Ile-NH2] (X1-F[dDap(Me2)]L[Pro(4R-NH2)][NMeL]DRI-NH2): the “RIOP, maximum percent reduction in IOP” value is given as “+ (+ IOP reduction >15%)”.

“Occ-Sni-Phe-dap(Me2)-Leu-Hyp-Nml-Val-Arg-Ile-NH2 ([Occ][Sni]FXL[Hyp][NMeL]VRI-NH2; not fully specified (residue 4); printed as Occ-Sni-Phe-dap(Me2)-Leu-Hyp-Nml-Val-Arg-Ile-NH2) [JAL-1400]”: the “RIOP, maximum percent reduction in IOP” value is recorded as “+ (+ IOP reduction >15%)”.
